From US20140328898A1, “Nano-Liposomal Formulations and Methods of Use” (CHILDREN'S NATIONAL MEDICAL CENTER, priority 2013, published 2014)

Assay: Size-dependent transdermal penetration of PEGylated and anionic liposomes through the stratum corneum of porcine ear tissue (Example 2), DiI fluorescence intensity profiles
Type: in vitro ADME, Yorkshire piglets
Settings: free dye applied to the skin in liposome-free buffer (control)
From the text: For PEGylated liposomes, dimyristoylphosphatidylcholine (DMPC), cholesterol, and dipalmitoylphosphatidylethanolamine-PEG 2000 (PEG2000-PE) (Avanti Polar Lipids Inc., Alabaster, Ala.) were combined in chloroform (Mallinckrodt Baker Inc., Phillipsburg, N.J.) at a molar ratio of 70:25:5. For anionic liposomes, DMPC, cholesterol (both from Avanti), and anionic surfactant dihexadecyl phosphate (DCP) (Sigma Aldrich, St. Louis, Mo.) were mixed in chloroform (Mallinckrodt Baker Inc.) at a molar ratio of 50:40:10. The lipid mixtures were prepared in glass scintillation vials then stored in a vacuum desiccator for at least 24 hours for complete solvent removal. The desiccated lipid mixtures were re-dissolved in anhydrous ethanol (Sigma Aldrich) for a total lipid concentration of 40 mM. To assist in fluorescent imaging, a lipophilic membrane dye, 1,1′-dioctadecyl-3,3,3′,3′-tetramethylindocarbocyanine perchlorate (DiI-C18; DiI) (Life Technologies, Carlsbad, Calif.) was included into the lipid mixtures (1 wt %). […]
The microfluidic-generated liposomes contained lipophilic DiI in their bilayers and hydrophilic SF in their cores to enable fluorescence imaging of tissue penetration depth. […]

## O=C([O-])c1ccccc1-c1c2ccc(=O)cc-2oc2cc([O-])ccc12.[Na+].[Na+] [free SF dye, sodium fluorescein salt]
  SF dye penetration beyond the SC (in words): no penetration beyond the SC was observed
